Drawing on a melting point compilation (Tetko et al.; mined from patent text by program, amines drawn as free bases though some values may be those of a salt), this text covers melting point for 89 molecules.

Bounds are passed on as bounds.

In turn, `CC(C)(CO)N1CC(COc2cccc(Cl)c2)OC1=O` (centres undefined) returned a melting point of 81 to 82 °C.
`N#CNC(=O)[C@@H]1CCC(=O)N1C(=O)OCc1ccccc1` gave a melting point of 185 to 186 °C.
`CN(C)CCN1C(=O)C(NC(=O)c2ccc(NS(C)(=O)=O)cc2)C(C)(C)SC1=S` (centres undefined) gave a melting point of 158 to 159 °C.
With `O=C(NCCSc1ccccn1)Nc1cc(N2CC(c3ccccc3)OC2=O)ccn1` (centres undefined), the melting point lay within 209 to 211 °C.
Consider `COc1ccc(C(=O)Nc2ccccc2)cc1Nc1cccc(NC(C)=O)c1`, for which the melting point was in the range of 202 to 203 °C.
For `CC1(C)CC(OC(=O)c2ccccc2)CC(C)(C)N1CC#N`, the melting point amounted to 147 °C.
For `N#Cc1ccc([C@@H]2CNC[C@@]23NC(=O)N(c2cc(Cl)cc(Cl)c2)C3=O)cc1` (relative stereo), the melting point turned out to be 198 °C.
For `CC(C)(Sc1ccccc1)C(=O)O`, the melting point lay within 62 to 64 °C.
`CC(=O)Nc1cc(C(C)=O)ccc1OCCCCl` displayed a melting point of 124 to 126 °C.
On to `COC(=O)CC1Sc2sc(S(N)(=O)=O)cc2NC1=O` (centres undefined), for which the melting point lay in the range of 195 to 197 °C.
On to `C[C@]1(N2Cc3c(OCc4ccc(CN5CCOCC5)cc4)cccc3C2=O)CCC(=O)NC1=O`, for which the melting point lay in the range of 178 to 180 °C.
Next, `CCCCCCCCC(=O)NCc1ccc(C(=O)O)cc1`: 178 to 180 °C; `O=CNc1cccc2ccccc12`: 134 to 135 °C.
The molecule `COC(=O)c1sc(C#N)cc1[N+](=O)[O-]` showed a melting point of 83 to 85 °C.
`CC(=O)NCC1CC(c2ccc(-n3ccc(C=O)c3)c(F)c2)=NO1` (single isomer, unassigned; (-)): the melting point fell in the range of 155 to 156 °C.
For the molecule `CCC(C)(C)c1cccc(C(=O)NN)c1O`, the melting point lay within 156 to 157 °C.
As for `CC(C(=O)O)=C1c2ccccc2C=Cc2ccccc21`, the melting point lay within 235 to 236 °C.
As for `CC(=O)N=c1sc(C)cn1CC(=O)c1cccs1`, the melting point fell in the range of 187 to 188 °C.
In turn, `O=C1NCCc2c1c1cccc(F)c1n2COCc1ccccc1` registered a melting point of 130 to 132 °C.
Consider `CN1CCC(c2c[nH]c3ccc(O)cc23)CC1`, for which the melting point is 234 to 237 °C.
Next, `CN1CCC(=C2c3cc(Br)ccc3CC(=O)c3sccc32)CC1`: 172 to 173 °C; `COC(=O)c1ccc(-c2ccc(-c3ccccc3)c(-c3ccc4c(c3)C(C)(C)CCC4(C)C)c2)cc1C`: 130 to 132 °C; `NC(=O)Cc1cnc(Nc2n[nH]c3ccc(-c4ncccc4Cl)cc23)s1`: over 230 °C.
To `COC(=O)c1ccccc1NC(=O)CN1CCNCC1` belongs 94 to 96 °C; to `COc1ccccc1-c1ccc(C(=O)N2Cc3ccc(C(=O)N(C)CC(O)CO)n3Cc3ccccc32)cc1C` (centres undefined), 174 to 184 °C; to `CCCc1c(OCCCS(=O)(=O)c2c(C(C)C)nn3ccccc23)ccc(C(C)=O)c1O`, 170 °C.
Next, `N#Cc1cnc2c(-c3ccncc3)c(-c3ccc(F)cc3)nn2c1N`: over 280 °C; `Cn1c(=O)cc(N)n(-c2ccc(Cl)cc2Cl)c1=O`: 249 to 251 °C; `CCCCCCCCCCCCc1c([N+](=O)[O-])ncn1C`: 56 to 59 °C.
`O=C1NCCN1c1ccc(S(=O)(=O)Nc2ccc(OC(F)F)cc2)cc1` came in with a melting point of 198 to 200 °C.
Molecule `CCOC(=O)c1cnc2n(c1=O)CCC2` returned a melting point of 59 to 60 °C.
For `NCC1(O)c2ccccc2CCc2ccccc21`, the melting point fell in the range of 147 to 149 °C.
`Cc1cc(-c2ccc3c(C(N)=O)nn(-c4ccc(S(N)(=O)=O)cc4)c3c2)ccc1F`: the melting point was in the range of 300 to 302 °C.
To `COC(=O)c1cc(F)c2ncc(C(=O)NCc3ccc(Cl)cc3)c(O)c2c1` belongs 288 to 290 °C; to `ClCc1cc(-c2ccccc2)nc2ccccc12`, 79 °C; to `CC(C)(C)c1ccc(Cn2cc(C(=O)C(=O)O)c3cc(-c4ccc(Cl)cc4)ccc32)cc1`, 183 to 184 °C.
With `CN1C(=O)[C@H](NC(=O)CCc2cccc(C#N)c2)N=C(c2ccccc2)c2ccccc21`, the melting point was in the range of 110 to 112 °C.
`Cc1cc(Br)cc(C(=O)Nc2ccc(F)c(C)n2)n1`: the melting point turned out to be 182 °C.
To `N#Cc1ccc2oc3c(c2c1)CCC(C(=O)O)C3` (centres undefined) belongs 185 to 190 °C.
The molecule `Cn1ncc(NCCCN2CCC(c3noc4cc(F)ccc34)CC2)c(Cl)c1=O` yielded a melting point of 200 to 202 °C.
For the molecule `C=CC(C)(C)C(O)(COc1ccc(-c2ccccc2)cc1)Cn1cnnc1` (centres undefined), the melting point was 171 to 173 °C.
Turning to `CC(Nc1ccc(F)c(F)c1)C(=O)O` (centres undefined), the melting point was determined as 163 °C.
`Cc1nnc(OCC(F)(F)F)c(-c2c(F)cc(F)cc2F)c1-c1ccc(Cl)cc1` came in with a melting point of 105 to 108 °C.
In turn, `Nc1cccc2c1CNC2=O` had a melting point of 196 to 197 °C.
Next, `CCCCOCCOc1ccc(-c2ccc3c(c2)C=C(C(=O)Nc2ccc(SCc4nccn4CCCC(N)=O)cc2)CCN3CC(C)C)cc1`: 142 to 143 °C; `CCCc1c(OCCCC(=O)NCCCCc2cccnc2)ccc(C(C)=O)c1O`: 80 to 82 °C.
To `O=C(N[C@H]1CC[C@H](CCN2CCN(c3nccc4c3OCC4)CC2)CC1)c1ccc(-n2cccc2)cc1` belongs 236 °C.
As for `CCCCCCCN(CCCCCCCCSc1nc(-c2ccccc2)c(-c2ccccc2)[nH]1)C(=O)Nc1ccc(F)cc1F`, the melting point was in the range of 89 to 91 °C.
Turning to `O=C1C[C@@H](O)C[C@H](/C=C/c2c(Cl)cc(Cl)cc2Oc2ccccc2)O1` (relative stereo), the melting point fell in the range of 124 to 126 °C.
`CC(=NNc1ccc([N+](=O)[O-])cc1)c1ccccc1` displayed a melting point of 186 to 188 °C.
`Nc1ccc(S(=O)(=O)NCCCN2CCOCC2)cc1` came in with a melting point of 96 to 97 °C.
Take `N#Cc1c(Br)c(C(F)(F)F)n(COC(=O)C2CC2)c1-c1ccc(Cl)cc1`: the melting point lay in the range of 122 to 123 °C.
`CC(=O)OC1C(Oc2cccc(O)c2C(=O)CCc2ccc3occc3c2)OC(CO)C(O)C1OC(C)=O` (centres undefined) returned a melting point of 127 to 129 °C.
In turn, `CNC(=O)c1cccc(F)c1Nc1nc(Nc2ccc3c(c2)C(C)(C)CCC(=O)N3)ncc1Cl` had a melting point of 153 °C.
Next, `COc1ccnc(CCc2nc3cc(-c4ccc(S(=O)(=O)Nc5ccc(N(C)C)cc5)cc4)cnc3[nH]2)c1`: 221 to 222 °C.
Next, `CCOC(=O)C1(Nc2nc(-c3ccc(Br)cc3)cs2)CC1`: 152 to 154 °C; `CCOC(=O)C1CC1C(=O)O` (centres undefined): 46 °C.
In turn, `CNC(=O)c1cnc(OCC(O)CNC(C)C)c(Cl)c1` (centres undefined) had a melting point of 130 to 132 °C.
Molecule `CN(C)CCNC1=CC(=O)c2nc(-c3cc(F)ccc3F)oc2C1=O` had a melting point of 162 to 163 °C.
For `CN(C)n1cc(-c2ccccc2)c(=O)c(-c2ccccc2)c1`, the melting point amounted to 143 °C.
To `O=C(O)c1ccc2c(=O)n3c(nc2c1)C(=Cc1ccccc1)CC3` belongs 382 to 384 °C; to `Cc1cc2cc(CN3CCCC3)cnc2cc1NC(=O)c1ccc(-c2ccc(Cl)s2)cc1`, 216 °C.
The molecule `S=C1N=c2ccc(OCCN3CCC(Cc4ccccc4)CC3)cc2=N1` came in with a melting point of 273 to 275 °C.
As for `CCOC(=O)c1c(O)c2cnc(N3CCCC3)nc2n(C)c1=O`, the melting point was in the range of 174 to 177 °C.
`O=C1c2cccc(O)c2CCC1CN1CCC(O)(c2ccccc2)CC1` (centres undefined) gave a melting point of 187 to 189 °C.
Turning to `Cc1cc(-c2cc3ncccc3c(=O)[nH]2)cc(C)c1O`, the melting point is over 350 °C.
In turn, `CCOC(=O)CCCOc1ccc(C(C)=O)cc1OC` registered a melting point of 53 to 55 °C.
`COc1nc(C)c(C(C)=O)cc1NC(=O)N1CCN(c2cccc(C)c2C)CC1` displayed a melting point of 173 to 174 °C.
Consider `COc1ccc(CNc2nc(Cl)ncc2C(=O)c2ccccn2)cc1Cl`, for which the melting point is 117 to 119 °C.
As to `NS(=O)(=O)c1cc2cc(OCC(=O)O)ccc2s1`, the melting point is 200 to 203 °C.
The molecule `CN1CCC(CCCOc2cc3ncnc(Nc4cccc(Br)c4)c3cc2N)CC1` had a melting point of 191 to 198 °C.
With `CCN(Cc1cc(Br)ccc1OCc1ccccc1)c1ncc(C(=O)NCc2nnn[nH]2)s1`, the melting point lay within 232 to 236 °C.
With `Cc1noc(-c2ncn3c2[C@@H]2CCCN2C(=O)c2c-3ccc(F)c2Cl)n1`, the melting point was 245 to 246 °C.
`CCOC(=O)c1nccc(NC=O)n1` had a melting point of 205 to 206 °C.
`O=C1C2CCCC2=Nc2ccccc2N1Cc1cccc([N+](=O)[O-])c1` (centres undefined) came in with a melting point of 124 to 126 °C.
`N#Cc1ccnc(C2=NC(c3ccc(F)cc3)(c3ccc(F)cc3)CN2)c1`: the melting point lay in the range of 206 to 208 °C.
Molecule `O=S(=O)(c1ccc(F)cc1)c1c[nH]c2ccc(Br)cc12` registered a melting point of 163 to 164 °C.
Next, `CCCCC(C(=O)OC)(C(=O)OC)c1nc(C)nc2c1c(SC)nn2-c1c(Cl)cc(Cl)cc1Cl`: 146 to 152 °C; `Cc1cc(C(=O)O)c(NC(=O)C(C)C)s1`: 160 to 162 °C; `COc1cc2c3c(nc4ccc(Cl)cc4c3c1)-c1ccc(Cl)cc1N2C`: 287 to 289 °C.
With `Cc1cccc(N2C(=O)CC(Cl)C2=O)c1` (centres undefined), the melting point lay in the range of 137 to 138 °C.
Regarding `COc1ccc(C=O)c(OC)c1C`, the melting point fell in the range of 51 to 52 °C.
Consider `CNC(=O)C(C#N)C(=O)Nc1ccc(C(F)(F)F)cc1` (centres undefined), for which the melting point is 184 to 186 °C.
Turning to `OC1CSC(Oc2cccc(-c3cccs3)c2)C(O)C1O` (centres undefined), the melting point fell in the range of 165 to 166 °C.
The molecule `CCOC(=O)C(=O)c1csc(NC(=O)Nc2ccccc2F)n1` gave a melting point of 219 to 225 °C.
As to `Oc1ccc(-n2nc3ccccc3n2)cc1`, the melting point was 216 to 218 °C.
Molecule `C/C(=N\OC(=O)[C@@H](NC(=O)OC(C)(C)C)C(C)C)[C@H]1CC[C@H]2[C@@H]3CCC4=CC(=O)CC[C@]4(C)[C@H]3CC[C@]12C` displayed a melting point of 82 to 84 °C.
`CC(C)c1ccc2nc3ccc(C(=O)OCCCCc4cccnc4)cn3c(=O)c2c1`: the melting point fell in the range of 95 to 96 °C.
For the molecule `CCC(OC(=O)COC)c1ccc(Cl)c2nc3n(c12)CCCN3c1ccc(Cl)cc1Cl` (centres undefined), the melting point lay within 156 to 158 °C.
